Data reported in article PMC9260921, “Design and Synthesis of Carbothioamide/Carboxamide-Based Pyrazoline Analogs as Potential Anticancer Agents: Apoptosis, Molecular Docking, ADME Assay, and DNA Binding Studies” (ACS Omega, 2022).
Values after ≈ are worked out from the molar mass of the structure shown.

How the values were obtained:
[1] = system: breast cancer cell line (MCF-7); parameters: method as in PMID 20627597; details: cited from earlier work
[2] = system: HeLa; parameters: method as in PMID 27159418; details: cited from earlier work
[3] = system: human lung cancer cell (A549); assay: MTT cytotoxicity assay, A549; type: cell-based; details: for Selectivity Index A549: HFL-1 vs A549; for IC50: Homo sapiens, MTT, 24 h treatment, A549
Method: (§1) The American type culture collection (ATCC, USA) provided human lung cancer cell line (A549), cervical cancer cell line (HeLa), and human primary normal lung cells (HFL-1) for this investigation. In a water-jacketed cell culture incubator, all of these cell types were cultured according to conventional culture conditions at 37 °C with 5% CO2. These cells were cultured in appropriate cell culture media. A549 cells were grown in DMEM media with 2 mM glutamine, HeLa cells were grown in Eagle’s minimum essential medium (EMEM) as recommended, whereas HFL-1 cells were also grown in F-12K. Fetal bovine serum 10% (FBS) was added to the entire medium. At a rate of 8000 cells were seeded in triplicate in a single 96-well plate for the MTT technique of cell death investigation. […] After the treatment period was finished, the media was removed, and each well was gently washed three times with PBS to clear any remaining residue just before the experiment. […] The plates were incubated at 37 °C for 4 h after the MTT was added. We used DMSO to remove crystals after the incubation period was completed. A hybrid multi-mode plate reader (BioTek, USA) with a microplate reader was used to measure absorbance at 570 nm. The percentage inhibition was calculated using eq 1: [drawing 1] 1 where ODtreated is the mean optical density (OD) of the treated cells and ODcontrol is the OD of the vehicle control cells (negative control).
(§2) With all of the experimental drugs, we conducted the MTT assay three times. Prism8 software (GraphPad) was used to determine the IC50 values of the various drugs, which were then expressed as a drug concentration (μM).

[4] = system: human cervical cancer cell (HeLa); assay: MTT cytotoxicity assay, HeLa; type: cell-based; details: for Selectivity Index HeLa: HFL-1 vs HeLa; for IC50: Homo sapiens, MTT, 24 h treatment, HeLa
Method: as §1, §2

[5] = system: human primary normal lung cells (HFL-1); assay: MTT cytotoxicity assay, HFL-1; type: cell-based; details: HFL1, 24 h treatment
Method: as §1, §2

[6] = system: A549 cells; assay: Annexin V-FITC/PI flow cytometry apoptosis assay; type: cell-based, human; details: 4 μM, 24 h, control 11.41%
Method: We used flow cytometry analysis on A549 and HeLa cells for the quantitative apoptosis assay. As previously stated, cells were cultivated at 1.0 × 10^5 cells/ml and plated in 24-well culture plates (Corning) for 24 h. Cells were cultured for further 24 h after being treated with 4 μm of target drugs 3a and 3h. For analysis, the medium was discarded and cells were washed briefly in PBS, and then, the trypsinization protocol was carried out. Furthermore, cells were suspended in PBS and stained with annexin in V-FITC/PI according to the supplier technique (Sigma, USA, catalogue number: APOAF-20TST). After adding the reagents, the cells were allowed to incubate for 30 min at room temperature before being analyzed in PBS. The analysis was conducted on a BD FACS Accuri (BD Biosciences, USA), and the results were analyzed using FlowJo software (BD Biosciences, USA).[42]

[7] = system: Ct-DNA; assay: Fluorescence emission titration; type: binding; details: DNA 10 μM, compound 10–80 μM
Method: Drug interactions with Ct-DNA have been studied using fluorescence assays. The experiments were achieved by varying drug concentration from 10 to 80 μM while keeping the concentration of DNA (10 μM) constant. Before making emission observation, the synthesized compound was incubated for 3 min with mixing DNA, after which emission titration was collected in Tris-buffer (pH 7.4) excitation at wavelength 260 nm, and the quenching results were analyzed using the Stern–Volmer equation (eq 3): [drawing 3] 3 Slit width has been kept constant at 10 nm during emission and excitation. The titration experiments were repeated three times (n = 3) to ensure consistent results.[50]−[52]

[8] = system: EB-DNA complex (Ct-DNA); assay: Ethidium bromide dye displacement assay; type: binding; details: quenching of EB-DNA fluorescence
Source text: Competitive fluorescence binding experiments utilizing ethidium bromide, a standard intercalation indicator, were used to evaluate the degree of molecular binding interaction mechanism of an active drug with Ct-DNA. […] The observable changes in the EB–DNA adduct’s emission spectrum as a function of quencher addition are particularly valuable for researching compound–DNA interactions. Fluorescence measurements were done in Tris-buffer at a 515 nm excitation wavelength in the range of 530–700 nm. Slit widths for both emission and excitation were set at about 10 nm.[54],[69]

[9] = system: Ct-DNA; assay: Cyclic voltammetry; type: binding; details: Tris-buffer, 100 mV s^–1, DNA 10–40 μM
Method: Using this experiment, a drug–DNA binding interaction has also been investigated. The solution’s pH was maintained before analysis, and the entire analytical equipment was built at 25 °C with a constant potential of 100 mV s^–1 scan rate and a voltage range of −1 to +1 V. The spectra of a test compound (60 μL) were recorded using a screen-printed electrode (SPE). These experiments were carried out in a 1:1 ferri/ferrocyanide solution ratio. Various concentrations of Ct-DNA (Tris-buffer) were used to further evaluate test compounds 3a and 3h. The working electrode is made of the test compound, whereas the counter and reference electrodes are made of gold-coated copper. Binding constants were obtained using eq 4: [drawing 4] 4 where I0 and I are the peak currents of compound and compound–DNA complexes, respectively.[56]

[10] = DPPH radical scavenging antioxidant assay; details: 1 h incubation in the dark
Method: The antioxidant activity of the 3a and 3h was determined using the DPPH ([…]) radical scavenging technique, as reported.[60],[73] In methanol, the DPPH radical has a purple color and has a strong absorption band with a maximum of 517 nm. Compound concentrations ranging from 1 to 4 μM were mixed with DPPH at a concentration of 10 μM. The mixtures were properly mixed and then incubated at room temperature for 1 h in the dark. The standard reference was ascorbic acid. As a control, DPPH in methanol was utilized. The % of DPPH radical scavenged was used to calculate the antioxidant activity of the compounds, which was calculated using eq 5: [drawing 5] 5 where Acontrol = DPPH absorbance; Asample = sample with DPPH absorbance.

IC50 DPPH radical scavenging [10] [µg/mL] | SMILES | IC50 [1] [µM] | IC50 [2] [µM] | Selectivity Index A549 [3] | IC50 [3] [µM] | Selectivity Index HeLa [4] | IC50 [4] [µM] | IC50 [5] [µM] | cell death (sum of Q1+Q2+Q3) [6] [%] | Stern–Volmer constant KSV (emission titration) [7] | Stern–Volmer constant KSV (EtBr displacement) [8] | binding constant K (cyclic voltammetry) [9]
 | COc1ccc(C2CC(c3ccc(C)c(C)c3)=NN2C(N)=S)cc1 (stereo not drawn) [Compound 1] | 0.08 |  |  |  |  |  |  |  |  |  | 
 | COc1cc(C2=NN(C(N)=O)C(c3cn(C)c4ccc(Br)cc34)C2)cc(OC)c1OC (stereo not drawn) [Compound 2] |  | 0.21 |  |  |  |  |  |  |  |  | 
 | COc1cccc(C2=NN(C(N)=O)C(c3cn(C)c4ccc(Br)cc34)C2)c1 (stereo not drawn) [Compound 3] |  | 0.25 |  |  |  |  |  |  |  |  | 
0.132 ± 0.012 (≈ 0.368 µM) | CN(C)c1ccc(C2CC(c3ccc(Cl)cc3)=NN2C(N)=S)cc1 (stereo not drawn) [Compound 3a] |  |  | 8.4 | 13.5 ± 0.17 | 6.5 | 17.52 ± 0.09 | 114.5 ± 0.01 | 25.86 | 5.80 × 10^3 M^–1 | 1.84 × 10^4 M^–1 | 1.25 × 10^4
 | CN(C)c1ccc(C2CC(c3cccc(Br)c3)=NN2C(N)=S)cc1 (stereo not drawn) [Compound 3b] |  |  | 1.0 | 222.3 ± 0.09 | 1.5 | 150.1 ± 0.24 | 227.98 ± 0.04 |  |  |  | 
 | CN(C)c1ccc(C2CC(c3cccc([N+](=O)[O-])c3)=NN2C(N)=S)cc1 (stereo not drawn) [Compound 3c] |  |  | 1.1 | 163.9 ± 0.07 | 1.4 | 123.6 ± 0.2 | 185.3 ± 0.21 |  |  |  | 
 | CN(C)c1ccc(C2CC(c3ccccc3Cl)=NN2C(N)=S)cc1 (stereo not drawn) [Compound 3d] |  |  | 1.8 | 118.7 ± 0.08 | 14.46 | 15 ± 0.46 | 217.03 ± 0.02 |  |  |  | 
 | Cc1ccc(C2=NN(C(N)=S)C(c3ccc(N(C)C)cc3)C2)cc1 (stereo not drawn) [Compound 3e] |  |  |  | 37.07 ± 0.14 | 17.4 | 14.1 ± 0.4 | 244.64 ± 0.05 |  |  |  | 
 | CN(C)c1ccc(C2CC(c3ccc(Br)cc3)=NN2C(N)=S)cc1 (stereo not drawn) [Compound 3f] |  |  | 2.0 | 94.18 ± 0.11 | 1.1 | 168.8 ± 0.36 | 194.33 ± 0.01 |  |  |  | 
 | CN(C)c1ccc(C2CC(c3ccc(Cl)cc3)=NN2C(N)=O)cc1 (stereo not drawn) [Compound 3g] |  |  | 0.4 | 59.74 ± 0.18 | 0.03 | 890.3 ± 0.22 | 26.94 ± 0.08 |  |  |  | 
0.215 ± 0.025 (≈ 0.555 µM) | CN(C)c1ccc(C2CC(c3cccc(Br)c3)=NN2C(N)=O)cc1 (stereo not drawn) [Compound 3h] |  |  | 7.6 | 22.5 ± 0.25 | 7.1 | 24.1 ± 0.86 | 173 ± 10 | 20.60 | 4.28 × 10^3 M^–1 | 1.69 × 10^4 M^–1 | 7.1 × 10^3
 | CN(C)c1ccc(C2CC(c3ccc([N+](=O)[O-])cc3)=NN2C(N)=O)cc1 (stereo not drawn) [Compound 3i] |  |  | 0.9 | 174.84 ± 0.05 | 2.0 | 80.7 ± 0.28 | 165.84 ± 0.03 |  |  |  | 
 | CN(C)c1ccc(C2CC(c3cccc4ccccc34)=NN2C(N)=S)cc1 (stereo not drawn) [Compound 3j] |  |  | 0.5 | 290.09 ± 0.14 | 0.8 | 194.2 ± 0.44 | 166.75 ± 0.03 |  |  |  | 
 | CN(C)c1ccc(C2CC(c3cccc4ccccc34)=NN2C(N)=O)cc1 (stereo not drawn) [Compound 3k] |  |  | 0.5 | 52.76 ± 0.28 | 0.2 | 96.46 ± 0.25 | 27.52 ± 0.06 |  |  |  | 
 | CCN(CC)c1ccc(C2CC(c3ccc(Br)cc3)=NN2C(N)=S)cc1 (stereo not drawn) [Compound 3l] |  |  | 4.2 | 43.93 ± 0.13 | 10.5 | 17.7 ± 0.42 | 185.45 ± 0.14 |  |  |  | 
